Measured values: ChEMBL document CHEMBL3301361, “Experimental in vitro DMPK and physicochemical data on a set of publicly disclosed compounds”

Columns and labels:
physchem = conditions: octan-1-ol/water
in vitro = conditions: human, plasma

Structure (SMILES)	logD (physchem; pH 7.4, LogD7.4)	fraction unbound at 5 h (in vitro; PPB)	logD (physchem; pH 7.4)	fraction unbound at 5 h (in vitro)
CN1CCN(c2ccc3ncc(C(N)=O)c(Nc4ccc(F)cc4F)c3c2)CC1	2.3	0.258	–	–
Cc1nc(Cl)c(Cl)n1Cc1sc2c(c1C(=O)N1CC[C@@H](O)C1)c(=O)n(C)c(=O)n2CC(C)C	1.61	0.089	–	–
O=C1CN(C(=O)c2ccccc2)C(c2ccccc2)c2cc(Cl)ccc2N1 (stereo unspecified)	3.31	0.0606	–	–
Cc1cnc(Nc2cncc(N[C@@H](C)c3ncc(F)cn3)n2)s1	1.91	0.173	–	–
CN[C@@H](C)C(=O)N[C@H](C(=O)N[C@H]1CCCN(CCc2ccc(F)cc2)C1)C1CCCCC1	2.39	0.266	–	–
COc1ccc(-c2nc(N3CCOCC3)nc(O)c2C#N)cc1	0.2	0.0647	–	–
CO[C@H]1CN(CCn2c(=O)ccc3ccc(C#N)cc32)CC[C@H]1NCc1ccc2c(n1)NC(=O)CO2	0.32	0.535	–	–
COc1ccc(-c2cc(Nc3ccn(C)n3)n3ncc(C#N)c3n2)cc1	2.97	0.0179	–	–
NC(=O)c1cnc(N[C@H]2CCCNC2)c2cc(-c3ccc(Cl)c(F)c3)sc12	2.76	0.0106	–	–
Cc1c(Sc2ccc(Cl)cc2)c2cc(S(C)(=O)=O)ccc2n1CC(=O)O	0.54	0.0127	–	–
N#Cc1cnn2c(NC3CC3)cc(-c3cccs3)nc12	2.88	0.016	–	–
COc1ccc2ncc(=O)n(CCN3CC[C@H](NCc4cc5c(cn4)OCCO5)[C@@H](OC)C3)c2c1	1.25	0.166	–	–
CNc1c(Br)cnc2nc(-c3ccc(OCCN4CCCCC4)cc3)[nH]c12	2.56	0.112	–	–
COc1ncc2ccc(=O)n(CCN3CCC(NCc4cc5c(cn4)OCCO5)CC3)c2n1	0.2	0.276	–	–
NC(=O)c1ccc(Oc2cccc3cccnc23)c([N+](=O)[O-])c1	–	–	1.7	0.0383
CCOc1cccc(/C=C2\SC(=O)NC2=O)c1N1CCC[C@@H](N)C1	1.86	0.0521	–	–
CN1CCCC1CCNC(=O)c1ccc(Nc2ncc3cc(-c4ccncc4)ccc3n2)cc1 (stereo unspecified)	2.01	0.0081	–	–
CCOc1cc2nnc(C(N)=O)c(Nc3cc(C)ccc3F)c2cc1N1CCN(C)CC1	3.02	0.107	–	–
CC(C)(C(=O)c1cccnc1)c1cccnc1 [METYRAPONE]	1.45	0.888	–	–
Cc1cc(Nc2nc(N[C@@H](C)c3ccc(F)cn3)c(C#N)cc2F)n[nH]1	3.11	0.0532	–	–
Cc1cn([C@H]2CCCN(S(=O)(=O)c3ccc(C(N)=O)c(Oc4cccc(Cl)c4)c3)C2)c(=O)[nH]c1=O	1.96	0.0358	–	–

Structure (SMILES)	logD (physchem; pH 7.4, LogD7.4)	fraction unbound at 5 h (in vitro; PPB)	logD (physchem; pH 7.4)	fraction unbound at 5 h (in vitro)
O=C(CC12CC3CC(CC(C3)C1)C2)Nc1cccc2nc(NCCNCCO)ccc12	1.79	0.0457	–	–
Cc1cn([C@H]2CCCN(Cc3ccc(C(=O)O)c(Oc4cccc(Br)c4)c3)C2)c(=O)[nH]c1=O	-0.51	0.0191	–	–
Cc1ncc(-c2nc(Nc3ccc(C(=O)N4CC[C@H](N(C)C)C4)cc3)ncc2F)n1C(C)C	2.16	0.258	–	–
Cc1ccc(-c2csc3ncnc(O)c23)cc1	2.59	0.0391	–	–
CO[C@@H]1CN(CCn2c(=O)ccc3ccc(C#N)cc32)CC[C@H]1NCc1ccc2c(n1)NC(=O)CO2	0.81	0.276	–	–
C[C@]12N[C@H](Cc3ccccc31)c1ccccc12 [DIZOCILPINE]	–	–	1.6	0.529
NC(=O)Nc1sc(-c2ccc(CN3CCCCC3)cc2)cc1C(N)=O	1.75	0.334	–	–
N#Cc1cnn2c(N)cc(-c3ccc(F)cc3)nc12	2.23	0.0544	–	–
Cc1ccc2c(c1)c(-c1ccnc3c(S(C)(=O)=O)cccc13)c(C)n2CC(=O)O	-0.34	0.0606	–	–
COc1ccc(OC)c(CNc2[nH]nc3ccnc(Oc4ccccc4)c23)c1	4.25	0.0142	–	–
c1ccc2[nH]c(CCCc3nc4ccccc4[nH]3)nc2c1	3.5	0.0031	–	–
COc1cccc(/C=C2\SC(=O)NC2=O)c1N1CCC[C@@H](N)C1	1.27	0.0836	–	–
COCCOc1cc2ncc(C(N)=O)c(Nc3ccc(C)cc3F)c2cc1N1CCN(C)CC1	2.24	0.151	–	–
CO[C@H]1CN(CCn2c(=O)ccc3ccc(C#N)cc32)CC[C@@H]1NCc1cc2c(cn1)OCCO2	1.05	0.16	–	–
CC(=O)Nc1ccc2ccn(-c3cc(NCCCN(C)C)n4ncc(C#N)c4n3)c2c1	1.62	0.101	–	–
CC(=O)Nc1ccc2ccn(-c3cc(NC4CC4)n4ncc(C#N)c4n3)c2c1	–	–	3.29	0.0139
CN[C@@H](C)C(=O)N[C@H](C(=O)N(C)[C@H]1CCCN(CCc2ccccc2)C1)C1CCCCC1	2.34	0.266	–	–
N#Cc1cccc(C(=O)NC[C@@H](O)CN2CCC(Oc3ccc(Cl)c(Cl)c3)CC2)c1	3.48	0.0647	–	–
Cc1[nH]c(/C=C2\C(=O)Nc3ccc(F)cc32)c(C)c1C(=O)NCCN(C)C	1.75	0.173	–	–
CCOC(=O)c1ncn2c1CN(C)C(=O)c1cc(F)ccc1-2 [FLUMAZENIL]	–	–	1.1	0.443
CS(=O)(=O)Cc1ccc2ccn(-c3cc(NC4CC4)n4ncc(C#N)c4n3)c2c1	2.49	0.0179	–	–

Structure (SMILES)	logD (physchem; pH 7.4, LogD7.4)	fraction unbound at 5 h (in vitro; PPB)	logD (physchem; pH 7.4)	fraction unbound at 5 h (in vitro)
C1CCC(C(CC2CCCCN2)C2CCCCC2)CC1 (stereo unspecified) [PERHEXILINE]	3.02	0.0156	–	–
CC[C@@H](CO)Nc1nc(SCc2ccccc2)nc2nc(N)sc12	2.99	0.0335	–	–
CN[C@@H](C)C(=O)N[C@H](C(=O)N[C@H]1CCN(C(=O)Cc2ccccc2)C1)C1CCCCC1	0.81	0.671	–	–
CS(=O)(=O)c1ccc2c(C(=O)NC[C@@H](O)CN3CCC(Oc4ccc(C#N)c(Cl)c4)CC3)c[nH]c(=O)c2c1	1.41	0.319	–	–
COc1c2occc2cc2ccc(=O)oc12 [METHOXSALEN]	1.97	0.0768	–	–
COc1ccc(C(CN(C)C)C2(O)CCCCC2)cc1 (stereo unspecified) [VENLAFAXINE]	–	–	0.99	0.814
Cc1c(Cl)ccc(OC2CCN(C[C@H](O)CNC(=O)c3c[nH]c(=O)cc3C(F)(F)F)CC2)c1Cl	3.14	0.0335	–	–
NC(=O)c1cnc(N[C@H]2CCCNC2)c2cc(-c3ccc(F)cc3)sc12	2.01	0.0262	–	–
Cc1cc(Nc2nc(N[C@@H](C)c3ncc(F)cn3)ncc2C)n[nH]1	1.75	0.28	–	–
C[C@H](Nc1ncc(F)c(Nc2cc(C3CC3)[nH]n2)n1)c1ncc(F)cn1	2.47	0.224	–	–
Cc1nc(CSc2nc(N[C@H](C)CO)c3sc(=O)[nH]c3n2)cs1	1.73	0.0086	–	–
CC(=O)Nc1cnc2ccn(-c3cc(NC4CC4)n4ncc(C#N)c4n3)c2c1	2.69	0.0251	–	–
CC[C@H](c1ccc(C(=O)O)c(Oc2cccc(Cl)c2)c1)N1CCC[C@H](n2cc(C)c(=O)[nH]c2=O)C1	0.22	0.0179	–	–
Cc1cc(Nc2nc(O[C@H](C)c3ccc(F)cn3)c(C#N)nc2C)[nH]n1	2.72	0.0219	–	–
O=C(c1cccc(Cc2n[nH]c(=O)c3ccccc23)c1)N1CCN(c2ncccn2)CC1	2.13	0.0544	–	–
O=C1COc2ccc(CNC3CCN(CCN4C(=O)COc5ccc(F)cc54)CC3)nc2N1	–	–	0.9	0.17
CC(C)N(CCC(C(N)=O)(c1ccccc1)c1ccccn1)C(C)C (stereo unspecified) [DISOPYRAMIDE]	–	–	-0.54	0.666
O=C(CSc1nccn(-c2ccc(F)c(F)c2)c1=O)NC1CCCC1	2	0.28	–	–
COc1cc2nc(N3CCN(C(=O)C4CCCO4)CC3)nc(N)c2cc1OC (stereo unspecified) [TERAZOSIN]	0.9	0.204	–	–
Cc1ccc(C(=O)N(CCCN)[C@H](c2nc3cc(Cl)ccc3c(=O)n2Cc2ccccc2)C(C)C)cc1	–	–	2.88	0.0081
Cc1cnc(Nc2ccc(N3CCN(C)CC3)cc2)nc1Nc1cccc(S(=O)(=O)NC(C)(C)C)c1	2.84	0.0752	–	–
